# From patent US8618289B2 (Ambit Biosciences Corporation, priority 2008, dated 2013)
# Like-named read-outs stand apart in the source and are kept apart here.
# What was measured:
# A375 cells = test: cells; settings: Homo sapiens, A-375, read-out: A375 Viability EC50
# RAF kinases [1] = target: T1, RAF kinases (Homo sapiens, UniProt P04049); settings: read-out: RAF1 Kd; RAF1
# RAF kinases [2] = target: T2, RAF kinases (Homo sapiens, UniProt P15056, V600E); settings: read-out: BRAF V600E Kd; BRAF V600E
# T2 sequence (P15056 whole entry V600E): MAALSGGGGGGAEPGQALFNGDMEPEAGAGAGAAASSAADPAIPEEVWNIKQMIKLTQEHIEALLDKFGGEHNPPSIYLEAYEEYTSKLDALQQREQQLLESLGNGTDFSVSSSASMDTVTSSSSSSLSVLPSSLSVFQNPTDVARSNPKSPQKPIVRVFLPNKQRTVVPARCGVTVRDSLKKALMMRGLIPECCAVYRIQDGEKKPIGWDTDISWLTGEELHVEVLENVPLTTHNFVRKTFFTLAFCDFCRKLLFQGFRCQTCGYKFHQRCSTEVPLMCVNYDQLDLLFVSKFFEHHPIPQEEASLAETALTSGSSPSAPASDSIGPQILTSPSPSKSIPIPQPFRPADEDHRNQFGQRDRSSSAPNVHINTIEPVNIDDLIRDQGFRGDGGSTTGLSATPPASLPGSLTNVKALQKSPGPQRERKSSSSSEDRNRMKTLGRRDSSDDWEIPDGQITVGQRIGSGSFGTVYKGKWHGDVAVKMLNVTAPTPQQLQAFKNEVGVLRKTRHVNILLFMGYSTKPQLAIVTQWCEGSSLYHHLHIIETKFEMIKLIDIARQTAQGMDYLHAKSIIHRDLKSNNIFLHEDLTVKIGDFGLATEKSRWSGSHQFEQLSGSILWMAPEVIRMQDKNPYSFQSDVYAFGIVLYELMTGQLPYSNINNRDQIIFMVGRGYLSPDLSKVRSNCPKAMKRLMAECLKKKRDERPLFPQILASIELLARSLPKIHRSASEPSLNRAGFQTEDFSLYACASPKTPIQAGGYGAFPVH
# [3] = system: MEK1 phosphorylation in the A375 human melanoma cell line; test: cells; settings: A-375, read-out: pMEK IC50
# RAF kinases [4] = target: T3, RAF kinases (Homo sapiens, UniProt P15056); test: biochemical
# T3 sequence (P15056 whole entry): as the sequence (P15056 whole entry V600E) above, with E600V counted along it
# RAF kinases [5] = target: T3, RAF kinases; settings: read-out: BRAF WT Kd; BRAF WT
# RAF kinases [6] = target: T1, RAF kinases; test: biochemical
# RAF kinases [7] = target: T2, RAF kinases; test: biochemical
# T1 sequence (P04049 whole entry): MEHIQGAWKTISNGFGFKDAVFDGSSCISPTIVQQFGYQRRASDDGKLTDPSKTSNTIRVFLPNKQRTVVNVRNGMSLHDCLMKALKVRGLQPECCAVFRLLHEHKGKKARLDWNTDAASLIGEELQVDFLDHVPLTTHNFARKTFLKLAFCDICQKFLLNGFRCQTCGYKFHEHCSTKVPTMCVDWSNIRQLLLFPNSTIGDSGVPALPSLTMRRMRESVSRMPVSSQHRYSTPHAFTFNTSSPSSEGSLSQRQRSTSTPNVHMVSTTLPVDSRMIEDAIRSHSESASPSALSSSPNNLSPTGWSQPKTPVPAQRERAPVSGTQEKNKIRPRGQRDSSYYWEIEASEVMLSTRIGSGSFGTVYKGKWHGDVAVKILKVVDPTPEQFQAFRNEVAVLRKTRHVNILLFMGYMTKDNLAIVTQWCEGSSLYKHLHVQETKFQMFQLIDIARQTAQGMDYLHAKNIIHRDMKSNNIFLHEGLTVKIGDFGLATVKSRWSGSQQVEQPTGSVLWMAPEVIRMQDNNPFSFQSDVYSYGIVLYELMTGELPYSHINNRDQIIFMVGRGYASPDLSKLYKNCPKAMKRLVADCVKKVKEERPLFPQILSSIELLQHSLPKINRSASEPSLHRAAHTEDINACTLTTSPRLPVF
SMILES,EC50 (A375 cells),Kd (RAF kinases [1]),Kd (RAF kinases [2]),IC50 [3],Kd (RAF kinases [4]),Kd (RAF kinases [5]),Kd (RAF kinases [6]),Kd (RAF kinases [7])
"COCCOc1cc2ncnc(Oc3cccc(NC(=O)Nc4cc(C(C)(CF)CF)on4)c3)c2cc1OC [Ex 213, 1-[5-(1,3-difluoro-2-methylpropan-2-yl)isoxazol-3-yl]-3-{3-[6-methoxy-7-(2-methoxyethoxy)quinazolin-4-yloxy]phenyl}urea]",< 250 nM,< 250 nM,< 250 nM,< 250 nM,250 to 500 nM,,,
"COCCOc1cc2ncnc(Oc3cccc(NC(=O)Nc4cc(C(C)(C)F)no4)c3)c2cc1OC [Ex 218, 1-(3-(2-fluoropropan-2-yl)isoxazol-5-yl)-3-(3-(6-methoxy-7-(2-methoxyethoxy)quinazolin-4-yloxy)phenyl)urea]",> 1000 nM,< 250 nM,< 250 nM,250 to 500 nM,250 to 500 nM,,,
"COCCOc1cc2ncnc(Oc3cccc(NC(=O)Nc4ccc(C(F)(F)F)c(OC)c4)c3)c2cc1OC [Ex 223, 1-(3-methoxy-4-(trifluoromethyl)phenyl)-3-(3-(6-methoxy-7-(2-methoxyethoxy)quinazolin-4-yloxy)phenyl)urea]",> 1000 nM,,,> 1000 nM,,> 1000 nM,500 to 1000 nM,250 to 500 nM
"COCCOc1cc2ncnc(Oc3cccc(NC(=O)Nc4cc(C(F)(F)F)no4)c3)c2cc1OC [Ex 229, 1-(3-(6-methoxy-7-(2-methoxyethoxy)quinazolin-4-yloxy)phenyl)-3-(3-(trifluoromethyl)isoxazol-5-yl)urea]",> 1000 nM,< 250 nM,< 250 nM,> 1000 nM,250 to 500 nM,,,
"COCCOc1cc2ncnc(Sc3cccc(NC(=O)Nc4cc(C5CCCC5)on4)c3)c2cc1OC [Ex 235, 1-(5-cyclopentylisoxazol-3-yl)-3-(3-(6-methoxy-7-(2-methoxyethoxy)quinazolin-4-ylthio)phenyl)urea]",> 1000 nM,< 250 nM,< 250 nM,250 to 500 nM,250 to 500 nM,,,
"COCCOc1cc2ncnc(Sc3cccc(NC(=O)Nc4cc(C(C)(C)C)nn4-c4ccccc4)c3)c2cc1OC [Ex 236, 1-(3-tert-butyl-1-phenyl-1H-pyrazol-5-yl)-3-(3-(6-methoxy-7-(2-methoxyethoxy)quinazolin-4-ylthio)phenyl)urea]",,> 1000 nM,> 1000 nM,< 250 nM,,> 1000 nM,,
"COc1cc2ncnc(Sc3cccc(NC(=O)Nc4cc(C(C)(C)F)no4)c3)c2cc1OCCCN1CCS(=O)(=O)CC1 [Ex 245, 1-(3-(2-fluoropropan-2-yl)isoxazol-5-yl)-3-(3-(7-methoxy-6-(4,4-dioxo-3-thiomorpholinopropoxy)quinazolin-4-ylthio)phenyl)urea]",> 1000 nM,,< 250 nM,< 250 nM,,< 250 nM,250 to 500 nM,
"COc1cc2c(Oc3cccc(NC(=O)Nc4cc(C(C)(C)F)no4)c3)ncnc2cc1OCCN1CCOCC1 [Ex 251, 1-(3-(2-fluoropropan-2-yl)isoxazol-5-yl)-3-(3-(6-methoxy-7-(2-morpholinoethoxy)quinazolin-4-yloxy)phenyl)urea]",> 1000 nM,,< 250 nM,250 to 500 nM,,< 250 nM,250 to 500 nM,
"COc1cc2ncnc(Oc3cccc(NC(=O)Nc4cc(C(F)(F)F)no4)c3)c2cc1OC [Ex 254, 1-(3-(6,7-dimethoxyquinazolin-4-yloxy)phenyl)-3-(3-(trifluoromethyl)isoxazol-5-yl)urea]",> 1000 nM,< 250 nM,< 250 nM,> 1000 nM,250 to 500 nM,,,
"COc1cc2ncnc(Oc3cccc(NC(=O)Nc4cc(C(C)(C)C(F)(F)F)on4)c3)c2cc1OC [Ex 259, 1-(3-(6,7-dimethoxyquinazolin-4-yloxy)phenyl)-3-(5-(1,1,1-trifluoro-2-methylpropan-2-yl)isoxazol-3-yl)urea]",< 250 nM,< 250 nM,< 250 nM,< 250 nM,< 250 nM,,,
"COc1cc2ncnc(Sc3cccc(NC(=O)Nc4cc(C(C)(C)C(F)(F)F)on4)c3)c2cc1OC [Ex 261, 1-(3-(6,7-dimethoxyquinazolin-4-ylthio)phenyl)-3-(5-(1,1,1-trifluoro-2-methylpropan-2-yl)isoxazol-3-yl)urea]",> 1000 nM,,,< 250 nM,250 to 500 nM,,< 250 nM,< 250 nM
"COc1cc2ncnc(Oc3cccc(NC(=O)Nc4cc(C(C)(C)C(F)(F)F)on4)c3F)c2cc1OC [Ex 265, 1-(3-(6,7-dimethoxyquinazolin-4-yloxy)-2-fluorophenyl)-3-(5-(1,1,1-trifluoro-2-methylpropan-2-yl)isoxazol-3-yl)urea]",250 to 500 nM,< 250 nM,< 250 nM,< 250 nM,250 to 500 nM,,,
"COc1cc2ncnc(Oc3cc(NC(=O)Nc4cc(C(C)(C)C(F)(F)F)on4)ccc3F)c2cc1OC [Ex 266, 1-(3-(6,7-dimethoxyquinazolin-4-yloxy)-4-fluorophenyl)-3-(5-(1,1,1-trifluoro-2-methylpropan-2-yl)isoxazol-3-yl)urea]",,< 250 nM,< 250 nM,< 250 nM,,< 250 nM,,
"COCCOc1cc2ncnc(Sc3cccc(NC(=O)Nc4cccc(C(C)(C)C#N)c4)c3)c2cc1OC [Ex 281, 1-(3-(2-cyanopropan-2-yl)phenyl)-3-(3-(6-methoxy-7-(2-methoxyethoxy)quinazolin-4-ylthio)phenyl)urea]",> 1000 nM,,,250 to 500 nM,< 250 nM,,< 250 nM,< 250 nM
"COc1cc2ncnc(Oc3cccc(NC(=O)Nc4cc(C(C)(C)C)nn4-c4ccccc4)c3C)c2cc1OC [Ex 289, 1-(3-tert-butyl-1-phenyl-1H-pyrazol-5-yl)-3-(3-(6,7-dimethoxyquinazolin-4-yloxy)-2-methylphenyl)urea]",500 to 1000 nM,,< 250 nM,< 250 nM,,> 1000 nM,500 to 1000 nM,
"COc1cc2ncnc(Oc3cccc(NC(=O)Nc4cc(C(C)(C)C)nn4-c4ccccc4)c3F)c2cc1OC [Ex 295, 1-(3-tert-butyl-1-phenyl-1H-pyrazol-5-yl)-3-(3-(6,7-dimethoxyquinazolin-4-yloxy)-2-fluorophenyl)urea]",> 1000 nM,,< 250 nM,500 to 1000 nM,,> 1000 nM,500 to 1000 nM,
"COc1cc2ncnc(Oc3ccc(Cl)c(NC(=O)Nc4cc(C(C)(C)C)on4)c3)c2cc1OC [Ex 299, 1-(5-tert-butylisoxazol-3-yl)-3-(2-chloro-5-(6,7-dimethoxyquinazolin-4-yloxy)phenyl)urea]",,< 250 nM,< 250 nM,< 250 nM,250 to 500 nM,,,
"COc1cc2ncnc(Sc3cccc(NC(=O)Nc4cc(C5CCC5)nn4-c4ccccc4)c3)c2cc1OC [Ex 356, 1-(3-cyclobutyl-1-phenyl-1H-pyrazol-5-yl)-3-(3-(6,7-dimethoxyquinazolin-4-ylthio)phenyl)urea]",< 250 nM,,< 250 nM,250 to 500 nM,,> 1000 nM,500 to 1000 nM,
"COc1cc2ncnc(Oc3cccc(NC(=O)Nc4cc(C(C)(C)C)nn4Cc4ccccc4)c3)c2cc1OC [Ex 357, 1-(1-benzyl-3-tert-butyl-1H-pyrazol-5-yl)-3-(3-(6,7-dimethoxyquinazolin-4-yloxy)phenyl)urea]",> 1000 nM,> 1000 nM,< 250 nM,250 to 500 nM,500 to 1000 nM,,,
"COc1cc2ncnc(Oc3cccc(NC(=O)Nc4cc(C(C)(C)C)nn4-c4cccc(Cl)c4)c3)c2cc1OC [Ex 363, 1-(3-tert-butyl-1-(3-chlorophenyl)-1H-pyrazol-5-yl)-3-(3-(6,7-dimethoxyquinazolin-4-yloxy)phenyl)urea]",,> 1000 nM,< 250 nM,< 250 nM,250 to 500 nM,,,
"COc1cc2ncnc(Sc3cccc(NC(=O)Nc4cc(C(C)(C)C)nn4-c4cccc(Cl)c4)c3)c2cc1OC [Ex 364, 1-(3-tert-butyl-1-(3-chlorophenyl)-1H-pyrazol-5-yl)-3-(3-(6,7-dimethoxyquinazolin-4-ylthio)phenyl)urea]",,> 1000 nM,< 250 nM,< 250 nM,500 to 1000 nM,,,
"COc1cc2ncnc(Oc3cccc(NC(=O)Nc4cc(C(C)(C)C)nn4-c4ccc(C(C)(C)C)cc4)c3)c2cc1OC [Ex 369, 1-(3-tert-butyl-1-(4-tert-butylphenyl)-1H-pyrazol-5-yl)-3-(3-(6,7-dimethoxyquinazolin-4-yloxy)phenyl)urea]",> 1000 nM,> 1000 nM,< 250 nM,< 250 nM,500 to 1000 nM,,,
"CCOc1cc2c(Oc3cccc(NC(=O)Nc4cc(C(F)(F)F)nn4-c4ccccc4)c3)ncnc2cc1OC [Ex 391, 1-(3-(6-ethoxy-7-methoxyquinazolin-4-yloxy)phenyl)-3-(1-phenyl-3-(trifluoromethyl)-1H-pyrazol-5-yl)urea]",< 250 nM,,,< 250 nM,250 to 500 nM,,250 to 500 nM,< 250 nM
"COc1cc2ncnc(Oc3cc(NC(=O)Nc4cc(C(F)(F)F)nn4-c4ccccc4)ccc3F)c2cc1OC [Ex 397, 1-(3-(6,7-Dimethoxyquinazolin-4-yloxy)-4-fluorophenyl)-3-(1-phenyl-3-(trifluoromethyl)-1H-pyrazol-5-yl)urea]",250 to 500 nM,,< 250 nM,< 250 nM,,> 1000 nM,500 to 1000 nM,
